Experiments:
HEK293 cells = assay: Disaccharides to support growth of HEK293 cells in PFCDM; assay type: cell-based; settings: 10 g/l sugar, seeding 1.0×10^6 cells/ml, 22 days
Source text: In (A) CHO-K1 cells were cultivated in a serum-free protein-free cell culture medium, HyQ PF-CHO, with 3.6 g/l of different sugars (maltose, sucrose, lactose, trehalose or glucose) as carbohydrate source. The viable cell densities (lined markers) and culture viabilities (marker only) of these cultures at the beginning and end of each passage over a period of 74 days were plotted. Cultures with sucrose, lactose or trehalose were terminated on Day 31 due to the decreased culture viabilities and reduced viable cell densities. The experiment was repeated with a seeding cell density of 1.0×10^6 cells/ml to obtain similar results. In (B) CHO-DG44 cells were cultivated with a seeding cell density of 1.0×10^6 cells/ml in a serum-free protein-free cell culture medium, HyQ PF-CHO, with 10 g/l of different sugars (maltose, sucrose, lactose, trehalose or glucose) as carbohydrate source. The viable cell densities (lined markers) and cell viabilities (marker only) of these cultures at the beginning and end of each passage over a period of 22 days were plotted. In (C) HEK293 cells were cultivated with a seeding cell density of 1.0×10^6 cells/ml in a protein-free chemically defined cell culture medium, PFCDM, with 10 g/l of different sugars (maltose, sucrose, lactose, trehalose or glucose) as carbohydrate source. The viable cell densities (lined markers) and cell viabilities (marker only) of these cultures at the beginning and end of each passage over a period of 22 days were plotted. Cultures with sucrose, lactose or trehalose were terminated on Day 14 due to the decreased culture viabilities and reduced viable cell densities.

[1] = tested on: SH87 (CHO-K1 cell line producing an anti-Her2 monoclonal antibody); assay: SH87 shake flask batch cultures in PFCDM with glucose and maltose; assay type: cell-based, Chinese Hamster; settings: 20 g/l maltose supplemented vs 14 g/l glucose and 10 g/l maltose supplemented cultures
Protocol: Viable cell density and culture viability were determined by Trypan blue dye exclusion method using Vi-Cell XR Cell Viability Analyzer (Beckman Coulter, Brea, CA) according to manufacturer's instructions. For biochemical and other cell culture parameter analyses, 1 ml of culture sample was centrifuged at 8000 g for 10 minutes to obtain clarified supernatant. Concentrations of ammonium, glutamine, glucose and lactate were analyzed by the BioProfile 100 Plus (Nova Biomedical, Waltham, MA). Osmolality was measured using a vapor pressure osmometer (Vapro 5520, Wescor, Logan, UT), according to manufacturer's instructions. Maltose concentration was quantified using Maltose Colorimetric/Fluorometric Assay Kit (Biovision, Milpitas, CA), according to manufacturer's instructions. […] Cells were cultivated in single-use Erlenmeyer flasks (Corning), with a cell seeding density of 0.3×10^6 cells/ml in duplicates. Cell culture samples were collected and analyzed daily throughout the duration of the growth profile experiment until culture viabilities fell below 50%. When necessary, culture supernatant samples were stored at -20° C. for further analysis.

[2] = Maltose and glucose profiles in cell-free conditioned media; assay type: physicochemical; settings: cell-free conditioned media of Days 2, 4, 6, 8; 3 g/l maltose; 37° C., 3 days
Protocol: In (A) SH87 cell were routinely maintained in glucose-only PFCDM was sub-cultivated into PFCDM with 4 g/l glucose, or 4 g/l glucose+3 g/l maltose. On Days 2, 4, 6 and 8, cell-free conditioned medium (CM) were harvested from both cultures. Viable cell densities (lined marker) and culture viabilities (marker only) were also monitored. In (B) CM from the maltose supplemented culture were incubated for a further 3 days at 37° C. Samples were harvested daily from these CM, starting from the day of harvest, to determine glucose and maltose concentrations. In (C) CM harvested from the glucose culture were spiked with maltose to a final concentration of 3 g/l prior to further incubation at 37° C. Samples from these CM were harvested daily for a further three (3) days to determine glucose and maltose concentrations. The averages and standard deviations from two (2) replicate shake flasks were plotted.
To further validate that the maltose was indeed utilized by the cells and not hydrolyzed in the culture media, cell-free conditioned media (CM) from Days 2, 4, 6 and 8 were obtained from a 3 g/l maltose supplemented culture as well as a 4 g/l glucose culture. 3 g/l maltose was spiked into the CM from the glucose culture, and both sets of CM were monitored over 3 days for changes in glucose and maltose concentrations at 37° C. (FIG. 4). […]

SH87 cells = assay: SH87 fed-batch bioreactor cultures in PFCDM; assay type: cell-based, Chinese Hamster
Protocol: For each culture condition to be tested, SH87 was scaled up in PFCDM and inoculated into duplicate two (2) liter glass bioreactors (Sartorius, Germany) at a viable cell density of 3×10^5 cells/ml. Culture temperature, pH, dissolved oxygen and stir rate were maintained at 37° C., 7.1, 50% and 120 rpm respectively. The culture set points for glucose and glutamine were 0.5 g/l and 0.5 mM respectively, and predictive feeding was used to maintain these concentration levels by the addition of a concentrated DMEM-based protein-free feed and a 150 g/l glucose solution. Cell culture samples were collected and analyzed daily throughout the duration of the growth profile experiment until culture viabilities fell below 50%. When necessary, culture supernatant samples were stored at −20° C. for further analysis.
Since fed-batch culture is a popular mode for the manufacturing of monoclonal antibodies, the use of maltose in fed-batch cultures was evaluated. […] As such, it was evaluated whether maltose can be used to supplement glucose in fed-batch cultures to drive the cells towards a slower but more efficient metabolism: Using a common glucose concentration setpoint of 0.5 g/l, SH87 in media supplemented with 4 g/l glucose and 20 g/l maltose was fed daily with 50% of its calculated glucose requirement, while cultures of the same cells in media containing 4 g/l glucose was fed daily with 100% of its calculated glucose requirement. Duplicate bioreactor cultures were performed for each condition and the growth, biochemical and IgG titer profiles of these cultures were plotted in FIG. 7.
Additionally, the present disclosure investigated whether maltose supplementation in the feed medium can have further effect on fed-batch cultures with maltose-supplemented base medium. Using a common glucose concentration setpoint of 0.5 g/l, SH87 in media supplemented with 4 g/l glucose and 20 g/l maltose was fed daily with 50% of its calculated glucose requirement, using a sugar feed consisting of only glucose, or of glucose and maltose in a 1:1 ratio.

OC[C@H]1O[C@H](O[C@H]2[C@H](O)[C@@H](O)[C@H](O)O[C@@H]2CO)[C@H](O)[C@@H](O)[C@@H]1O [maltose]
proliferation in serum-free culture medium with the sugar as sugar source (HEK293 cells): can proliferate
improvement in maximum IgG titer of batch culture [1]: 15%
maltose hydrolysis in conditioned culture media [2]: not occurring spontaneously
effect of additional maltose in the feed medium on cell growth, viability, glutamine, osmolality and IgG titer profiles (SH87 cells; base 4 g/l glucose + 20 g/l maltose, feed glucose and maltose 1:1 vs glucose only): no additional effect
improvement in maximum IgG titers vs glucose-only fed-batch cultures (SH87 cells; fed-batch bioreactor): 23%
improvement in specific IgG productivities vs glucose-only fed-batch cultures (SH87 cells; fed-batch bioreactor): 55%

Source: US12454675B2, “Method of increasing protein yield in mammalian cells in serum-free culture medium” (AGENCY FOR SCIENCE, TECHNOLOGY AND RESEARCH, priority 2016, dated 2025)
